{"source": "patent US9597347B2", "about": "“Compositions for treating obesity and insulin resistance disorders” (President and Fellows of Harvard College, priority 2003, dated 2017)", "assay_type_in_all_cases": "cell-based", "key": {"[1]": {"tested_on": "phosphorylation of ACC", "assay": "Western blot of ACC phosphorylation in HEP3B human hepatoma cells", "conditions": "resveratrol-treated cells with SIRT1 overexpressed or knocked down", "protocol": "Similar results were also observed for HEP3B human hepatoma cells. In this case phosphorylation of ACC was measured in cells were SIRT1 was overexpressed (see FIG. 9, 4 right lanes) and in cells were SIRT1 was knocked down (FIG. 9, left lane). […] Tubulin served as a loading control."}, "[2]": {"tested_on": "TNF-alpha treated adipocytes", "assay": "Radioactive glucose uptake in TNF-alpha treated, insulin resistant adipocytes", "conditions": "resveratrol 5 μM or 15 μM; roziglitazone 4 μM (positive control); with TNF-alpha", "protocol": "Adipocytes were treated with TNF-alpha to induce insulin resistance as described in Kabayama et al., Glycobiology 15:21-29 (2005) and Wu et al., Mol. Cell 3:151-8 (1999)."}, "[3]": {"tested_on": "NIH3T3 cells", "assay": "Adipocyte differentiation and fat content by Oil Red O staining, NIH3T3 cells", "protocol": "To obtain evidence that resveratrol affects fat metabolism in a physiologically relevant cell, we examined the effect of increasing concentrations of resveratrol on 3T3-L1 and NIH3T3 cell differentiation and fat content. 3T3-L1 or NIH3T3 cells were grown to confluence and allowed to pack in for 2 days at which point differentiation was initiated by addition of isobutylmethylxanthine, dexamethasone and insulin in the presence of vehicle (ethanol alone) or resveratrol at concentrations of 0, 12.5 and 25 μM. After 10 days of differentiation, fat content was assessed by Oil Red O staining, as described below. The results, which are shown in FIG. 12, indicate that concentrations of 25 μM or higher resveratrol decreased the quantity of cellular fat in 3T3-L1 and NIH3T3 cells. The results in NIH3T3 cells confirm the results obtained in C. elegans.\nTo further examine whether resveratrol activation of sir2 could promote fat mobilization or inhibition of differentiation in mammalian cells, we infected growing cells with wild-type SIRT1 or a deacetylase deficient form of SIRT1. […]\n3T3-L1 and NIH3T3 cells were maintained in DMEM plus 10% calf serum. […] The staining of adipocytes with Oil Red-O and quantitation was performed as described previously (Ramirez-Zacarias J L, Castro-Munozledo F, Kuri-Harcuch W. Histochemistry. 1992 July; 97(6):493-7). […]"}, "[4]": {"tested_on": "AMPK and ACC phosphorylation", "assay": "Western blot of AMPK and ACC phosphorylation in mouse embryonic fibroblasts", "conditions": "LKB1−/− cells; 50, 100, 200 μM", "protocol": "Similar results were also observed in mouse embryonic fibroblast (MEFs). […] Cells in the left panel were incubated overnight without serum before harvesting; the cells on the right were not incubated under serum free conditions. […] Tubulin served as a loading control."}, "[5]": {"tested_on": "H4IIEC3 cells", "assay": "Oxidation of 14C-palmitate in H4IIEC3 cells", "conditions": "resveratrol 10 μM in 1% DMSO, AICAR 500 μM in H2O, metformin 1 mM in H2O; 4 hours; vehicle = 1", "protocol": "Oxidation of 14C-palmitate to acid-soluble products (modified from H4IIEC3 cells [Witters, L. A. and B. E. Kemp, Insulin activation of acetyl-CoA carboxylase accompanied by inhibition of the 5′-AMP-activated protein kinase. J Biol Chem, 1992. 267(5): p. 2864-7] and HepG2 cells were maintained as described above. Cells (10^6 cells/T25) were seeded in a T25 flask one day prior to the experiment. On the day of the experiment cells were washed with assay buffer (114 mM NaCl, 4.7 mM KCL, 1.2 mM KH2PO4, 1.2 mM MgSO4, 11 mM glucose) before labeling with 14C-palmitate (0.4 μCi/ml) in presence of vehicle, or resveratrol (10 μM), or AICAR (500 μM) for 4 hours.\nAt the end of incubation, the cap of each T25 flask was replaced with a stopper and a 1′×1.5″ Whatman filter paper soaked with 250 μl 2N NaOH. Each flask was injected with 2 ml of 6N HCL, placed in a horizontal position for 10 minutes and left standing overnight. The next morning, 1 ml H2O and 61 μl NaOH were added to a glass scintillation vial and the filter papers from each T25 flask were transferred to their respective vial. 10 ml Aquasol was added to each vial and allowed to stand for 2 hours, after which the vials were vortexed to dissolve the […] and counted in the scintillation counter. The results were expressed as nmols/h/106 cells and shown as the fold effect. ^14CO2 production ranged from 0.3 to 1.8 nmols/h/106 cells. The experiment was repeated three times."}, "[6]": {"tested_on": "PPAR-γ", "assay": "Expression of the adipogenic transcription regulator PPAR-γ in 3T3 cells", "conditions": "cells exposed to resveratrol during differentiation", "excerpt": "AICAR stimulates AMPK signaling and inhibits adipogenesis in 3T3 cells. To distinguish whether the effect of resveratrol was to inhibit differentiation or mobilize fat from 3T3 cells, we examined whether resveratrol inhibited the expression of adipogenic transcription regulators such as PPAR-γ."}}, "note": "“Also recorded” adds a separate entry of the source."}
{"smiles": "Oc1ccc(/C=C/c2cc(O)cc(O)c2)cc1", "note": "[resveratrol, 3,5,4′-Trihydroxy-trans-stilbene]", "values": [{"measurement": "phosphorylation of ACC", "setting": "[1]", "value": "Phosphorylation of ACC was not affected"}, {"measurement": "radioactive glucose uptake / insulin sensitivity", "setting": "[2]", "value": "partially rescued the TNF-alpha treated adipocytes restoring insulin sensitivity"}, {"measurement": "concentrations that decreased the quantity of cellular fat", "setting": "[3]; 10 days of differentiation, 0, 12.5 and 25 μM tested, Oil Red O", "value": "≥ 25", "unit": "µM"}, {"measurement": "decrease in fat content", "setting": "[3]; cells expressing SIRT1 deacetylase deficient mutant (SIRT1ΔHY), 0, 12.5 or 25 μM, eight days", "value": "partially reduced"}, {"measurement": "AMPK and ACC phosphorylation", "setting": "[4]", "value": "still causes an upregulation of both AMPK and ACC phosphorylation"}, {"measurement": "14C-CO2 production (Fold Effect)", "setting": "[5]", "value": 2.3, "unit": "Fold Effect"}, {"measurement": "PPAR-γ RNA / expression", "setting": "[6]", "value": "did not show an increase in PPAR-γ RNA; also recorded: marked decrease in PPARγ expression"}]}
